pEC50: −log10 of the molar value. Where two headings read alike, the source gives them in different places.

For test [1], the system named is OVCAR3 (human ovarian cancer cell line). Description: 72 hr ATP luminescence proliferation inhibition, OVCAR3. The test is classed as cell-based. The protocol:
(§1) Proliferation inhibition was measured using a 72 hr ATP luminescence assay (Cheng et al., U.S. Pat. No. 8,394,922 B2 (2013)).
(§2) Proliferation inhibition was measured against: (a) H226 (human mesothelioma (lung) cancer cell line); (b) N87 (human gastric (stomach) cancer cell line); (c) OVCAR3 (human ovarian cancer cell line); (d) HCT116 (human colon cancer cell line); and (e) HCT116/VM46 (multidrug and paclitaxel resistant subline of HCT116).

Test [2] deals with HCT116 (human colon cancer cell line). Description: 72 hr ATP luminescence proliferation inhibition, HCT116. The test is classed as cell-based. The protocol: as §1, §2
The subject of test [3] is H226 (human mesothelioma (lung) cancer cell line). The test can be described thus: 72 hr ATP luminescence proliferation inhibition, H226. It is filed as cell-based. The protocol:
as §1, §2

For test [4], the system named is N87 (human gastric (stomach) cancer cell line). Description: 72 hr ATP luminescence proliferation inhibition, N87. The test is classed as cell-based. To be noted: read-out: Proliferation Inhibition of Cancer Cells EC50, N87. The protocol: as §1, §2
In test [5] the test system is HCT116/VM46 (multidrug and paclitaxel resistant subline of HCT116). The test can be described thus: 72 hr ATP luminescence proliferation inhibition, HCT116/VM46. To be noted: read-out: Proliferation Inhibition of Cancer Cells EC50, HCT116/VM46. It is filed as cell-based, human. On the procedure: as §1, §2
Where [6] appears, read: Homo sapiens, OVCAR-3, read-out: Proliferation Inhibition of Cancer Cells EC50, OVCAR3.
[7] abbreviates: Homo sapiens, HCT-116, read-out: Proliferation Inhibition of Cancer Cells EC50, HCT116.
Setting [8] is: Homo sapiens, NCI-H226, read-out: Proliferation Inhibition of Cancer Cells EC50, H226.
The mark [9] stands for this setting: Homo sapiens, HCT-116/VM46, HCT116/VM46 cell line.
Setting [10] is: read-out: Proliferation Inhibition of Cancer Cells EC50, OVCAR3.
[11] abbreviates: read-out: Proliferation Inhibition of Cancer Cells EC50, HCT116.
[12] abbreviates: read-out: Proliferation Inhibition of Cancer Cells EC50, H226.

For the compound `COc1cc2cc(C(=O)N3C[C@@H](CCl)c4c3cc(O)c3[nH]c(C(=O)N5CCOCC5)cc43)[nH]c2c(OC)c1OC` [Ia-30], the pEC50 is 10.49 in test [1] (setting [6]); 10.48 in test [2] (setting [7]); 10.74 in test [3] (setting [8]); 10.35 in test [4] (Homo sapiens); 10.01 in test [5] (setting [9]).

On to `CC(C)CCOc1ccc2[nH]c(C(=O)N3C[C@@H](CCl)c4c3cc(O)c3[nH]c(C(=O)N5CCOCC5)cc43)cc2c1` [Ia-31], for which the pEC50 in test [1] (setting [10]) was 9.28; in test [2] (setting [11]), 9.21; in test [3] (setting [12]), 9.62; in test [4] it was 9.37; in test [5] (HCT116/VM46 cell line), 9.07.

Turning to `O=C(Nc1ccc2nc(C(=O)N3C[C@@H](CCl)c4c3cc(O)c3[nH]c(C(=O)N5CCOCC5)cc43)cn2c1)c1ccc(O)cc1` [Ib-01], the pEC50 in test [1] (setting [10]) was 8.55; in test [2] (setting [11]), 8.49; in test [3] (setting [12]), 8.62; in test [4] it was 8.44; in test [5] (HCT116/VM46 cell line), 8.46.

As to `COCOc1ccc(C(=O)Nc2ccc3nc(C(=O)N4C[C@@H](CCl)c5c4cc(O)c4[nH]c(C(=O)N6CCOCC6)cc54)cn3c2)cc1` [Ib-02], the pEC50 in test [1] (setting [10]) is 9.28; in test [2] (setting [11]) it was 9.19; in test [3] (setting [12]), 9.00; in test [4] it was 9.02; in test [5] (HCT116/VM46 cell line), 8.72.

For `Nc1ccc2[nH]c(C(=O)Nc3ccc4[nH]c(C(=O)N5C[C@@H](CCl)c6c5cc(O)c5[nH]c(C(=O)N7CCOCC7)cc65)cc4c3)cc2c1` [Ic-01], the pEC50 in test [1] (setting [6]) was 9.05; in test [2] (setting [7]) it was 9.37; in test [3] (setting [8]), 9.04; in test [4] (Homo sapiens) it was 8.82; in test [5] (setting [9]), 9.12.

The record behind these values is patent publication US10287291B2, “Seco-cyclopropapyrroloindole compounds, antibody-drug conjugates thereof, and methods of making and use” (priority 2016, dated 2019).
